Measured values as given in ChEMBL document CHEMBL1649156, “Antianaerobic activity of sulopenem compared to six other agents” (2009).

Tests used:
Assay type in all cases: functional
Prevotella disiens = test: Antimicrobial activity in Prevotella disiens by CLSI agar dilution method in presence of clavulanate
Bacteroides fragilis = test: Antimicrobial activity in Bacteroides fragilis by CLSI agar dilution method in presence of clavulanate
[Clostridium] innocuum = Antimicrobial activity in Clostridium innocuum by CLSI agar dilution method in presence of clavulanate
Lactobacillus = test: Antimicrobial activity in Lactobacillus by CLSI agar dilution method in presence of clavulanate
Anaerococcus tetradius = test: Antimicrobial activity in Anaerococcus tetradius by CLSI agar dilution method in presence of clavulanate
Bacteroides stercoris = test: Antimicrobial activity in Bacteroides stercoris by CLSI agar dilution method in presence of clavulanate
Clostridioides difficile = test: Antimicrobial activity in Clostridium difficile by CLSI agar dilution method in presence of clavulanate
Prevotella nigrescens = test: Antimicrobial activity in Prevotella nigrescens by CLSI agar dilution method in presence of clavulanate
Prevotella denticola = test: Antimicrobial activity in Prevotella denticola by CLSI agar dilution method in presence of clavulanate
Prevotella salivae = test: Antimicrobial activity in Prevotella salivae by CLSI agar dilution method in presence of clavulanate; conditions: Segatella salivae
[1] = system: Peptoniphilus asaccharolyticus; test: Antimicrobial activity in Peptoniphilus asaccharolyticus by CLSI agar dilution method in presence of clavulanate
Tissierella praeacuta = test: Antimicrobial activity in Clostridium hastiforme by CLSI agar dilution method in presence of clavulanate
Parvimonas micra = test: Antimicrobial activity in Micromonas micros by CLSI agar dilution method in presence of clavulanate
[2] = system: Fusobacterium necrophorum; test: Antimicrobial activity in Fusobacterium necrophorum by CLSI agar dilution method in presence of clavulanate
Fusobacterium mortiferum = test: Antimicrobial activity in Fusobacterium mortiferum by CLSI agar dilution method in presence of clavulanate
[3] = system: Enterocloster clostridioformis; test: Antimicrobial activity in Clostridium clostridioforme by CLSI agar dilution method in presence of clavulanate
[4] = system: Bacteroides thetaiotaomicron; test: Antimicrobial activity in Bacteroides thetaiotaomicron by CLSI agar dilution method in presence of clavulanate
Clostridium sp. = test: Antimicrobial activity in Clostridium sp. by CLSI agar dilution method in presence of clavulanate
Prevotella buccae = test: Antimicrobial activity in Prevotella buccae by CLSI agar dilution method in presence of clavulanate; conditions: Segatella buccae
[5] = system: Prevotella melaninogenica; test: Antimicrobial activity in Prevotella melaninogenica by CLSI agar dilution method in presence of clavulanate
Eggerthella lenta = test: Antimicrobial activity in Eggerthella lenta by CLSI agar dilution method in presence of clavulanate
Fusobacterium nucleatum = test: Antimicrobial activity in Fusobacterium nucleatum by CLSI agar dilution method in presence of clavulanate
Thomasclavelia ramosa = test: Antimicrobial activity in Clostridium ramosum by CLSI agar dilution method in presence of clavulanate
Clostridium butyricum = test: Antimicrobial activity in Clostridium butyricum by CLSI agar dilution method in presence of clavulanate
Clostridium perfringens = test: Antimicrobial activity in Clostridium perfringens by CLSI agar dilution method in presence of clavulanate
Fusobacterium varium = test: Antimicrobial activity in Fusobacterium varium by CLSI agar dilution method in presence of clavulanate
[6] = system: Paraclostridium bifermentans; test: Antimicrobial activity in Clostridium bifermentans by CLSI agar dilution method in presence of clavulanate
Prevotella bergensis = test: Antimicrobial activity in Prevotella bergensis by CLSI agar dilution method in presence of clavulanate; conditions: Hallella bergensis
Actinomyces = test: Antimicrobial activity in Actinomyces by CLSI agar dilution method in presence of clavulanate
[7] = system: Parabacteroides distasonis; test: Antimicrobial activity in Bacteroides distasonis by CLSI agar dilution method in presence of clavulanate
Prevotella corporis = test: Antimicrobial activity in Prevotella corporis by CLSI agar dilution method in presence of clavulanate
Cutibacterium acnes = test: Antimicrobial activity in Propionibacterium acnes by CLSI agar dilution method in presence of clavulanate
[8] = system: Paeniclostridium sordellii; test: Antimicrobial activity in Clostridium sordellii by CLSI agar dilution method in presence of clavulanate; conditions: Paraclostridium sordellii
Prevotella intermedia = test: Antimicrobial activity in Prevotella intermedia by CLSI agar dilution method in presence of clavulanate
Phocaeicola vulgatus = test: Antimicrobial activity in Bacteroides vulgatus by CLSI agar dilution method in presence of clavulanate
Prevotella veroralis = test: Antimicrobial activity in Prevotella veroralis by CLSI agar dilution method in presence of clavulanate
Hoylesella loescheii = test: Antimicrobial activity in Prevotella loescheii by CLSI agar dilution method in presence of clavulanate
Prevotella bivia = test: Antimicrobial activity in Prevotella bivia by CLSI agar dilution method in presence of clavulanate
[9] = system: Porphyromonas asaccharolytica; test: Antimicrobial activity in Porphyromonas asaccharolytica by CLSI agar dilution method in presence of clavulanate
Porphyromonas gingivalis = test: Antimicrobial activity in Porphyromonas gingivalis by CLSI agar dilution method in presence of clavulanate
Prevotella baroniae = test: Antimicrobial activity in Prevotella baroniae by CLSI agar dilution method in presence of clavulanate; conditions: Segatella baroniae
[10] = system: Peptostreptococcus anaerobius; test: Antimicrobial activity in Peptostreptococcus anaerobius by CLSI agar dilution method in presence of clavulanate
Prevotella sp. = test: Antimicrobial activity in Prevotella sp.by CLSI agar dilution method in presence of clavulanate
Bacteroides uniformis = test: Antimicrobial activity in Bacteroides uniformis by CLSI agar dilution method in presence of clavulanate
Clostridium cadaveris = test: Antimicrobial activity in Clostridium cadaveris by CLSI agar dilution method in presence of clavulanate
Anaerococcus prevotii = test: Antimicrobial activity in Anaerococcus prevotii by CLSI agar dilution method in presence of clavulanate
Bacteroides ovatus = test: Antimicrobial activity in Bacteroides ovatus by CLSI agar dilution method in presence of clavulanate
Clostridium tertium = test: Antimicrobial activity in Clostridium tertium by CLSI agar dilution method in presence of clavulanate
Bifidobacterium = test: Antimicrobial activity in Bifidobacterium by CLSI agar dilution method in presence of clavulanate
Hoylesella oralis = test: Antimicrobial activity in Prevotella oralis group by CLSI agar dilution method in presence of clavulanate
Finegoldia magna = test: Antimicrobial activity in Finegoldia magna by CLSI agar dilution method in presence of clavulanate

In the case of `CC1(C)S[C@@H]2[C@H](NC(=O)[C@H](N)c3ccc(O)cc3)C(=O)N2[C@H]1C(=O)O` [AMOXICILLIN], the MIC (Prevotella disiens) was at most 0.125 µg/mL, the MIC50 (Prevotella disiens) was 0.25 µg/mL and the MIC50 (Bacteroides fragilis) was 0.5 µg/mL. For the same molecule, the MIC90 (Bacteroides fragilis) was 2 µg/mL, the MIC ([Clostridium] innocuum) was at most 0.125 µg/mL and the MIC50 (Lactobacillus) was 1 µg/mL. For the same molecule, the MIC90 (Lactobacillus) was 1 µg/mL, the MIC (Anaerococcus tetradius) was at most 0.125 µg/mL and the MIC50 (Anaerococcus tetradius) was at most 0.125 µg/mL. It also gave an MIC90 (Anaerococcus tetradius) of at most 0.125 µg/mL, an MIC (Bacteroides stercoris) of 0.5 µg/mL and an MIC50 (Bacteroides stercoris) of 1 µg/mL. For the same molecule, the MIC50 (Clostridioides difficile) was 1 µg/mL, the MIC90 (Clostridioides difficile) was 2 µg/mL and the MIC (Prevotella nigrescens) was at most 0.125 µg/mL. It also gave an MIC50 (Prevotella nigrescens) of at most 0.125 µg/mL, an MIC90 (Prevotella nigrescens) of 0.5 µg/mL and an MIC50 (Prevotella denticola) of 0.25 µg/mL. It also gave an MIC90 (Prevotella denticola) of 2 µg/mL, an MIC (Prevotella salivae) of at most 0.125 µg/mL and an MIC [1] of at most 0.125 µg/mL. For the same molecule, the MIC50 [1] was at most 0.125 µg/mL, the MIC (Tissierella praeacuta) was 1 µg/mL and the MIC (Parvimonas micra) was at most 0.125 µg/mL. The MIC50 (Parvimonas micra) was at most 0.125 µg/mL, the MIC90 (Parvimonas micra) was 0.5 µg/mL and the MIC [2] was at most 0.125 µg/mL. It also gave an MIC50 [2] of at most 0.125 µg/mL, an MIC50 (Fusobacterium mortiferum) of 1 µg/mL and an MIC90 (Fusobacterium mortiferum) of 32 µg/mL. For the same molecule, the MIC [3] was 1 µg/mL, the MIC50 [4] was 1 µg/mL and the MIC90 [4] was 4 µg/mL. For the same molecule, the MIC50 (Clostridium sp.) was 0.5 µg/mL, the MIC90 (Clostridium sp.) was 0.5 µg/mL and the MIC (Prevotella buccae) was at most 0.125 µg/mL. For the same molecule, the MIC50 (Prevotella buccae) was at most 0.125 µg/mL, the MIC90 (Prevotella buccae) was 1 µg/mL and the MIC50 [5] was 0.25 µg/mL. The MIC90 [5] was 2 µg/mL, the MIC50 (Eggerthella lenta) was 1 µg/mL and the MIC90 (Eggerthella lenta) was 1 µg/mL. It also gave an MIC (Fusobacterium nucleatum) of at most 0.125 µg/mL, an MIC50 (Fusobacterium nucleatum) of at most 0.125 µg/mL and an MIC90 (Fusobacterium nucleatum) of at most 0.125 µg/mL. For the same molecule, the MIC (Thomasclavelia ramosa) was at most 0.125 µg/mL, the MIC (Clostridium butyricum) was 1 µg/mL and the MIC (Clostridium perfringens) was at most 0.125 µg/mL. It also gave an MIC50 (Clostridium perfringens) of at most 0.125 µg/mL, an MIC90 (Clostridium perfringens) of at most 0.125 µg/mL and an MIC50 (Fusobacterium varium) of 2 µg/mL. It also gave an MIC90 (Fusobacterium varium) of 2 µg/mL, an MIC [6] of 0.25 µg/mL and an MIC (Prevotella bergensis) of 0.5 µg/mL. The MIC (Actinomyces) was at most 0.125 µg/mL, the MIC50 (Actinomyces) was 0.25 µg/mL and the MIC50 [7] was 4 µg/mL. The MIC90 [7] was 16 µg/mL, the MIC (Prevotella corporis) was at most 0.125 µg/mL and the MIC50 (Prevotella corporis) was at most 0.125 µg/mL. The MIC (Cutibacterium acnes) was at most 0.125 µg/mL, the MIC50 (Cutibacterium acnes) was at most 0.125 µg/mL and the MIC90 (Cutibacterium acnes) was 0.25 µg/mL. For the same molecule, the MIC [8] was at most 0.125 µg/mL, the MIC (Prevotella intermedia) was at most 0.125 µg/mL and the MIC50 (Prevotella intermedia) was at most 0.125 µg/mL. The MIC90 (Prevotella intermedia) was 0.5 µg/mL, the MIC50 (Phocaeicola vulgatus) was 1 µg/mL and the MIC90 (Phocaeicola vulgatus) was 8 µg/mL. The MIC (Prevotella veroralis) was at most 0.125 µg/mL, the MIC (Hoylesella loescheii) was 0.25 µg/mL and the MIC50 (Prevotella bivia) was 0.5 µg/mL. The MIC90 (Prevotella bivia) was 4 µg/mL, the MIC [9] was at most 0.125 µg/mL and the MIC (Porphyromonas gingivalis) was at most 0.125 µg/mL. For the same molecule, the MIC (Prevotella baroniae) was at most 0.125 µg/mL, the MIC50 [10] was 0.25 µg/mL and the MIC90 [10] was 32 µg/mL. For the same molecule, the MIC (Prevotella sp.) was at most 0.125 µg/mL, the MIC (Bacteroides uniformis) was 0.5 µg/mL and the MIC50 (Bacteroides uniformis) was 0.5 µg/mL. For the same molecule, the MIC (Clostridium cadaveris) was at most 0.125 µg/mL, the MIC (Anaerococcus prevotii) was at most 0.125 µg/mL and the MIC (Bacteroides ovatus) was 0.5 µg/mL. It also gave an MIC50 (Bacteroides ovatus) of 0.5 µg/mL, an MIC90 (Bacteroides ovatus) of 2 µg/mL and an MIC (Clostridium tertium) of 0.5 µg/mL. For the same molecule, the MIC50 (Clostridium tertium) was 0.5 µg/mL, the MIC (Bifidobacterium) was at most 0.125 µg/mL and the MIC50 (Bifidobacterium) was at most 0.125 µg/mL. For the same molecule, the MIC90 (Bifidobacterium) was 0.25 µg/mL, the MIC (Hoylesella oralis) was at most 0.125 µg/mL and the MIC50 (Finegoldia magna) was 0.25 µg/mL. For the same molecule, the MIC90 (Finegoldia magna) was 0.25 µg/mL.
